Experimental data taken from patent US11834663B2, “Fibrotic treatment” (Monash University, priority 2015, dated 2023).

Tested on: hearts of aged (18-22 month old) WT mice
Assay: Reversal of age-induced cardiac fibrosis and inflammation in aged WT mice (histology, immunofluorescence, western blot)
Type: in vivo, mouse
Details: aged (~20 month old) WT mice, 4 weeks, FIG. 19
Protocol: There are 8 different sets of in vivo experiments in this study: • A) Phenotypic characterisation of the heart and blood vessels in global IRAP knockout mice and their WT controls treated for 4 weeks with Angiotensin (Ang) II (800 ng/kg/min; s.c.) where mouse hearts and blood vessels were compared to tissue obtained from young WT and IRAP^−/− mice treated with saline. • B) Prevention of Ang II-induced changes in the cardiovascular system following IRAP inhibitor treatment. In the prevention model, WT mice were treated with Ang II (800 ng/kg/min; s.c.)±the IRAP inhibitor (HFI-419; 500 ng/kg/min for 28 days) or HFI-vehicle (1 DMSO:3 HBC). • C) Phenotypic characterisation of the aged heart, kidney and blood vessels in the global IRAP knockout mice where aged WT and IRAP^−/− mouse hearts, kidneys and blood vessels were compared to tissue obtained from young WT and IRAP^−/− mice. • D) Reversal of the age-induced changes in the cardiovascular system following IRAP inhibitor treatment. In the reversal model, aged WT mice were treated with either saline, IRAP inhibitor (HFI-419 at 500 ng/kg/min; compound 1 at 500 ng/kg/min; compound 2 at 50 ng/kg/min) or HFI-vehicle (1 DMSO: 3 HBC) for 4 weeks. • E) Prevention of ischemic-reperfusion injury in isolated hearts taken from aged global IRAP knockout mice and aged IRAP inhibitor (HFI-419 at 500 ng/kg/min; s.c.) treated WT mice compared to age-matched vehicle-treated (1 DMSO:3 HBC; s.c.) WT controls. • F) Phenotypic characterization of cardiac function using echocardiography in the aged global IRAP knockout mice compared to aged and young WT mice. • G) Phenotypic characterization of liver steatosis in IRAP knockout mice in a high fat diet (HFD) model. • H) Reversal of the salt-induced fibrosis in the liver following IRAP inhibitor treatment.
All mice which underwent surgery were anaesthetized with Isoflurane (Isorrane) (5% induction and 2.5% maintenance) and an incision made in the midscapular region through which osmotic minipumps (Alzet model 2004, Alza Corp) were inserted for subcutaneous drug administration. The incision area was sutured with 6/0 DY silk (Dynek Pty Ltd) and antibiotic powder applied (Cicatrin, Pfizer) followed by intramuscular injection of the analgesic Cartrophen (0.1 ml of a 1.5 mg/ml stock solution; Biopharm Australia). Systolic blood pressure (SBP) was measured fortnightly using non-invasive tail-cuff plethysmography apparatus (MC4000 Blood Pressure Analysis System, Hatteras Instrument Inc) before drug treatment (week 0), at week 2 of treatment and end of treatment (week 4). At the end of drug treatment, body weight of mice was recorded. Mice were anaesthetized using Isoflurane inhalation and killed by cervical dislocation. Organs (heart, aorta, kidneys, brain, blood and tibia) were collected, with heart and aorta being dissected appropriately as described below. All organs were then snap frozen in liquid nitrogen, and stored at −80° C. if they were not used for vascular reactivity studies conducted on the day mice were killed.
To measure collagen deposition, frozen sections of heart, kidney or aorta (all 5 μm thickness) were air dried for 10 minutes and were brought through 3 times xylene (2 minutes each), and 3 times absolute alcohol washes before being rinsed in tap H2O for 30 seconds. Staining with an optimal concentration of picrosirius red (in this instance 0.05% picrosirius red diluted in saturated picric acid) was performed and left for an hour. Sections were then rinsed in water and differentiated in 0.01 M HCl for 2 minutes, followed by dehydration via 3 times absolute alcohol washes. Then, slides were brought through 3 times xylene washes before being cover slipped according to standard histological techniques using DPX as the mounting medium. […]

Compound	age-induced collagen expression in the heart (picrosirius red) (compound 1 at 500 ng/kg/min)	age-induced collagen expression in the heart (picrosirius red) (compound 2 at 50 ng/kg/min)
CC(=O)C1=C(C)OC(N)=C(C#N)C1c1ccc(C(=O)O)cc1.N (centres unmarked) [Compound 1, 4-(3-acetyl-6-amino-5-cyano-2-methyl-4H-pyran-4-yl)benzoic acid]	reverse	–
N[C@H]1CCSSC[C@@H](C(=O)NCc2ccccc2CC(=O)O)NC(=O)C[C@H](Cc2ccc(O)cc2)NC1=O [Compound 2]	–	reverse
